# From paper PMC11968843, “Sulphostin-inspired N-phosphonopiperidones as selective covalent DPP8 and DPP9 inhibitors” (Nature Communications, 2025)
# Where “and” joins values, the source holds several entries; their conditions need not be identical. Identical values can stand only once. Like-named read-outs stand apart in the source and are kept apart here.
# Experiments:
# DPP8 [1] = biological target: T1, DPP8 (Homo sapiens, UniProt Q6V1X1); test: biochemical; assay type: biochemical; conditions: for DPP8 activity [%]: replicates
# T1 construct: purchased Proteros Biostructures GmbH, Germany
# How it was run: (§1)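 Initial velocity of AMC release from fluorogenic GP-AMC substrate read for up to 60 min at 30 °C in HEPES/KOH pH 7.3 buffer with 1 mM DTT. Enzyme (10 nM) preincubated 45 min at 30 °C with inhibitor (0–100 μM, 1% DMSO). IC50 from four-parameter variable-slope fit of triplicates.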
# DPP4 [2] = biological target: T2, DPP4 (Homo sapiens, UniProt P27487); test: biochemical; assay type: biochemical; conditions: for DPP4 activity [%]: replicates
# T2 construct: purchased Proteros Biostructures GmbH, Germany
# How it was run: as §1
# DPP9 [3] = biological target: T3, DPP9 (Homo sapiens, UniProt Q86TI2); test: biochemical; assay type: biochemical; design: purchased Proteros Biostructures GmbH, Germany; conditions: for DPP9 activity [%]: replicates
# How it was run: as §1
# DPP9 [4] = biological target: T3, DPP9; test: Time-dependent DPP9 inhibition kinetics (kobs, KI, kinact, kapp); assay type: biochemical; design: purchased Proteros Biostructures GmbH, Germany; conditions: for kobs: n=3
# How it was run: (§2)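 Enzyme (10 nM) received 250 µM GP-AMC together with serially diluted inhibitor, and fluorescence was followed for up to 120 min at 30 °C. Progress curves were fitted for kobs, and kobs versus [I] gave kinact and KI. kapp = kinact/KI; triplicates, errors are standard errors of the fit.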
# DPP4 [5] = biological target: T2, DPP4; assay type: biochemical; conditions: for kobs: n=3
# Experimental: To calculate the reaction rate of covalent bond formation between DPP proteins and inhibitor, kinact, KI and kapp was determined as previously described[30],[51]. […] Enzyme activity was measured for a maximum of 120 min at 30 °C, and fluorescence intensities were then plotted against time. Data was fitted to the following equation: Y=(vi/kobs)*(1−exp(−kobs*X)) using Graph-Pad Prism v10.2.3. The obtained pseudo-first-order rate constant was used to determine the maximum enzyme inhibition rate (kinact) and binding affinity (KI) by fitting the plot of kobs against inhibitor concentration to the following equation: Y=kinact/1+(KI/[I]) . The efficiency of covalent bond formation (kapp) was calculated by the ratio of kinact/KI. All measurements were performed in triplicates and error bars represent standard errors of the fit.
# [6] = biological target: T4, HEK293 cell lysates (proteome-wide targets of probe 9) (Homo sapiens, UniProt P61978); test: Competitive ABPP / direct target identification with alkyne probe 9 in HEK293 cell lysates; assay type: binding, H. sapiens; conditions: protein HNRNPK
# T4 construct: endogenous in cells; host or cells: HEK293 cell lysate
# [7] = biological target: T5, HEK293 cell lysates (proteome-wide targets of probe 9) (Homo sapiens, UniProt Q12802); test: as above; assay type: binding, H. sapiens; conditions: protein AKAP13
# T5 construct: endogenous in cells; host or cells: HEK293 cell lysate
# [8] = biological target: T6, HEK293 cell lysates (proteome-wide targets of probe 9) (Homo sapiens, UniProt Q7Z5P9); test: as above; assay type: binding, H. sapiens; conditions: protein MUC19
# T6 construct: endogenous in cells; host or cells: HEK293 cell lysate
# [9] = biological target: T7, HEK293 cell lysates (proteome-wide targets of probe 9) (Homo sapiens, UniProt P14618); test: as above; assay type: binding, H. sapiens; conditions: protein PKM
# T7 construct: endogenous in cells; host or cells: HEK293 cell lysate
# [10] = biological target: T8, HEK293 cell lysates (proteome-wide targets of probe 9) (Homo sapiens, UniProt P04406); test: as above; assay type: binding, H. sapiens; conditions: protein GAPDH
# T8 construct: endogenous in cells; host or cells: HEK293 cell lysate
# DPP8 [11] = biological target: T1, DPP8; test: Time-dependent DPP8 inhibition kinetics (kobs, KI, kinact, kapp); assay type: biochemical; conditions: for kobs: n=3
# How it was run: as §2
# [12] = irreversible inhibition, fit of kobs vs inhibitor concentration
# T2 sequence (P27487 whole entry): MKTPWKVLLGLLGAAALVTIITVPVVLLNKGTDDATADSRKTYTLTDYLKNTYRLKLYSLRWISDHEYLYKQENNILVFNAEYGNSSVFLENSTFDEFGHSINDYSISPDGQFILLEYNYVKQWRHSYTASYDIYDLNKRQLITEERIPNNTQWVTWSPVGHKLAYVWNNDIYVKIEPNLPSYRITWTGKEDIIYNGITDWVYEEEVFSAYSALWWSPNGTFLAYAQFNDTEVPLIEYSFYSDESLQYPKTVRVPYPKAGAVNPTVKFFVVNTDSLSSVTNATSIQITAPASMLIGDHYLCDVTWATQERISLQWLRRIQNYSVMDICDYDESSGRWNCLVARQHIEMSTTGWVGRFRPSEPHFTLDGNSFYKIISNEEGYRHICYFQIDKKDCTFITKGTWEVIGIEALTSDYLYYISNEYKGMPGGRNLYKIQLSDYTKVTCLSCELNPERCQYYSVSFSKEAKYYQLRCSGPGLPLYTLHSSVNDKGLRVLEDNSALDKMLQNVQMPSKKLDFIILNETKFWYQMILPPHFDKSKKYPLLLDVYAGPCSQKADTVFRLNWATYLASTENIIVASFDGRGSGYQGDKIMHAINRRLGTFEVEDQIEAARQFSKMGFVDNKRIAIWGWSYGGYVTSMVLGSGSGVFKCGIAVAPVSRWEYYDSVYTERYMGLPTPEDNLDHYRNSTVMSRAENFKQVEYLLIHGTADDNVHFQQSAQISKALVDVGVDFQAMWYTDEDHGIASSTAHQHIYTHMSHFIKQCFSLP
# T3 sequence (Q86TI2 whole entry): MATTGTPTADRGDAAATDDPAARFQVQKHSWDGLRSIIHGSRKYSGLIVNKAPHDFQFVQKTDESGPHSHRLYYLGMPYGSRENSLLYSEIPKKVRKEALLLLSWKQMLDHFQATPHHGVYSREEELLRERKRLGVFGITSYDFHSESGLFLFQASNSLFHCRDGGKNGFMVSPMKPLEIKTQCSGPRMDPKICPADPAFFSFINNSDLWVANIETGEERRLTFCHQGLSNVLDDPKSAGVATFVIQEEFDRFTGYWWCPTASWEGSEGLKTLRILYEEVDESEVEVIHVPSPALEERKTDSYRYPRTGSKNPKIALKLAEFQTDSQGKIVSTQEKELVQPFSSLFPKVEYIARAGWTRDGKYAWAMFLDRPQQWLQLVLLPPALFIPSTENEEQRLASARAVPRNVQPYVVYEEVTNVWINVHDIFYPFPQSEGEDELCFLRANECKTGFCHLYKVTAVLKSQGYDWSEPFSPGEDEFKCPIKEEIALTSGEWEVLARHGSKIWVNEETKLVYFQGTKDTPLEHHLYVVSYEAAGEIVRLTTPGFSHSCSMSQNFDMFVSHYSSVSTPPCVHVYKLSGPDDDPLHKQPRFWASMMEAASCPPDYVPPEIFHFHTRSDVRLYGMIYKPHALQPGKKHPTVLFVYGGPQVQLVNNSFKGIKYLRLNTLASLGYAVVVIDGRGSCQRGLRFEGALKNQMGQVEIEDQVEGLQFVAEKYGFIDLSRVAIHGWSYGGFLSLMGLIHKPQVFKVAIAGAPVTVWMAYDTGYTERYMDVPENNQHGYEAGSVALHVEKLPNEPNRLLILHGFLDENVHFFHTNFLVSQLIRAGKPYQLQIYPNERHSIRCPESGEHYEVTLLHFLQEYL
# T1 sequence (Q6V1X1 whole entry): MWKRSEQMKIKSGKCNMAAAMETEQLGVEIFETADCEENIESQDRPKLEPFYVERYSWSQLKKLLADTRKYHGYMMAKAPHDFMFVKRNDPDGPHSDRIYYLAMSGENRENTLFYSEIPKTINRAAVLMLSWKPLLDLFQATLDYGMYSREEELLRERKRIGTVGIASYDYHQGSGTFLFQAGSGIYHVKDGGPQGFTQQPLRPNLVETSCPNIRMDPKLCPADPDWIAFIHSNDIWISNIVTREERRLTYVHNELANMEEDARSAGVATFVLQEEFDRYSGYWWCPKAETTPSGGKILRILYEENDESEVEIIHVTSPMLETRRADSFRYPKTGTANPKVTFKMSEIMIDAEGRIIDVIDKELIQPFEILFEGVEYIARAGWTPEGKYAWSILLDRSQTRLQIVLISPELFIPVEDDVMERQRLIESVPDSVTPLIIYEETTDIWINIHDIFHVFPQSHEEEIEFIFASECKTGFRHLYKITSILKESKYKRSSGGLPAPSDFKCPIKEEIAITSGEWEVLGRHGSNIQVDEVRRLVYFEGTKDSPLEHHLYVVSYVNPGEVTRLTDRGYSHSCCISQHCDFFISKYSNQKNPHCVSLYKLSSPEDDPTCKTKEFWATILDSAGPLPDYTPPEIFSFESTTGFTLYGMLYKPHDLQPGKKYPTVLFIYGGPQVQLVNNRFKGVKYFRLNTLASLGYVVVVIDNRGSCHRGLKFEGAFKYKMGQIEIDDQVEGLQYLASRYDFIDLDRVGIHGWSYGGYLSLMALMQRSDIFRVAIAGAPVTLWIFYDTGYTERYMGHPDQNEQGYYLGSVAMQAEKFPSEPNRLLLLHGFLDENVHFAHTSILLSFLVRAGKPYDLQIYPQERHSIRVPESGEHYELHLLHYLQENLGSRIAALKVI
# T8 sequence (P04406 whole entry): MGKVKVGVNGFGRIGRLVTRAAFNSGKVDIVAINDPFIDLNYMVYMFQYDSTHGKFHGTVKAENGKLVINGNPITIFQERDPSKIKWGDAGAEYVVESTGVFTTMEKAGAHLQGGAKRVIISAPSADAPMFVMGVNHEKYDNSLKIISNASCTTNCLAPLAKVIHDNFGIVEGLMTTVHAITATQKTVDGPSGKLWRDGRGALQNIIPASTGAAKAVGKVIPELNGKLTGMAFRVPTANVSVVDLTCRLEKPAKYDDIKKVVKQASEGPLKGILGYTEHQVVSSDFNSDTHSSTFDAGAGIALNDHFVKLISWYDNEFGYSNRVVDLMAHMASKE
# T7 sequence (P14618 whole entry): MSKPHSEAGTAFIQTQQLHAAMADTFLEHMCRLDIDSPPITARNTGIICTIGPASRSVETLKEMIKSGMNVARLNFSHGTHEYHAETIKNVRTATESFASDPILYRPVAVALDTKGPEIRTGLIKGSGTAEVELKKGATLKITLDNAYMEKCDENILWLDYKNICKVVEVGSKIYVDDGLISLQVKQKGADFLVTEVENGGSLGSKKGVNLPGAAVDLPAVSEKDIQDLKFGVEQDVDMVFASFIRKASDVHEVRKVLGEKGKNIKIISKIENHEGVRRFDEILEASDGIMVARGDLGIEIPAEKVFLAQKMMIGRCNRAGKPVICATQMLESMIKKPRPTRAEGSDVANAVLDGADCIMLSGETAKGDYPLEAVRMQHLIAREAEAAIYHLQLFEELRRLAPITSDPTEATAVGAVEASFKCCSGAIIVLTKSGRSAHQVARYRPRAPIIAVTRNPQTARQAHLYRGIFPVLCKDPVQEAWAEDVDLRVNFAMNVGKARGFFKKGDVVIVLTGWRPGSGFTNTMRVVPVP
structure (smiles),measurement,setting,value
C#CCCCP(=O)(OCC)N1CCCC(N)C1=O.O=C(O)C(F)(F)F (mixture of isomers) [Compound 9],potency relative to C8-alkyne compound 10,"DPP8 [1]; DPP8/9 IC50, fold more potent",about 20 fold
same,IC50,"DPP8 [1]; GP-AMC 250 µM, 10 nM enzyme, 45 min pre-incubation at 30 °C, read-out: IC50 DPP8",0.668 ± 0.043 µM
same,DPP8 activity [%],DPP8 [1]; c 15.625 nM,88.0116% and 95.2585% and 92.8653%
same,DPP8 activity [%],DPP8 [1]; c 31.25 nM,98.7519% and 93.0125% and 99.7656%
same,DPP8 activity [%],DPP8 [1]; c 62.5 nM,100.514% and 96.8883% and 98.9251%
same,DPP8 activity [%],DPP8 [1]; c 250 nM,89.8086% and 92.0804% and 74.9743%
same,DPP8 activity [%],DPP8 [1]; c 312.5 nM,76.3712% and 75.8504% and 60.7309%
same,DPP8 activity [%],DPP8 [1]; c 500 nM,58.2452% and 66.831% and 55.6678%
same,DPP8 activity [%],DPP8 [1]; c 625 nM,43.0971% and 49.0696% and 43.2225%
same,DPP8 activity [%],DPP8 [1]; c 1000 nM,45.7318% and 41.4388% and 38.9079%
same,DPP8 activity [%],DPP8 [1]; c 1562.5 nM,30.9827% and 31.9714% and 36.8996%
same,DPP8 activity [%],DPP8 [1]; c 2500 nM,6.46% and 6.6893% and 8.361%
same,DPP8 activity [%],DPP8 [1]; c 3125 nM,13.5787% and 24.1011% and 12.0301%
same,DPP8 activity [%],DPP8 [1]; c 5000 nM,1.65% and 1.018% and 2.196%
same,DPP8 activity [%],DPP8 [1]; c 6250 nM,4.899% and 5.3654% and 4.34%
same,DPP8 activity [%],DPP8 [1]; c 10000 nM,0.2086% and 0.07371% and -0.1898%
same,DPP8 activity [%],DPP8 [1]; c 25000 nM,1.765% and 1.4465% and 2.043%
same,DPP8 activity [%],DPP8 [1]; c 50000 nM,2.554% and 1.757% and 1.4548%
same,DPP8 activity [%],DPP8 [1]; c 100000 nM,1.577% and 1.418% and 1.083%
same,potency relative to alkyl compound 5,DPP8 [1]; fold more potent inhibitor,about 20 fold
same,IC50,"DPP4 [2]; GP-AMC 250 µM, 10 nM enzyme, 45 min pre-incubation at 30 °C, read-out: IC50 DPP4",2.99 ± 0.97 µM
same,DPP4 activity [%],DPP4 [2]; c 1562.5 nM,65.3186% and 69.0903% and 69.4857%
same,DPP4 activity [%],DPP4 [2]; c 3125 nM,56.1551% and 36.739%
same,DPP4 activity [%],DPP4 [2]; c 6250 nM,16.7655% and 22.4037% and 25.1515%
same,DPP4 activity [%],DPP4 [2]; c 25000 nM,0.4601% and 0.7453% and 0.687%
same,DPP4 activity [%],DPP4 [2]; c 50000 nM,0.1815% and 0.2139% and 0.1037%
same,DPP4 activity [%],DPP4 [2]; c 100000 nM,0.1102% and 0.02592% and 0.006479%
same,IC50,"DPP9 [3]; GP-AMC 250 µM, 10 nM enzyme, 45 min pre-incubation at 30 °C, read-out: IC50 DPP9",1.57 ± 0.092 µM
same,DPP9 activity [%],DPP9 [3]; c 156.25 nM,96.2584% and 100.319% and 101.85%
same,DPP9 activity [%],DPP9 [3]; c 312.5 nM,100.858% and 91.3501% and 92.0123%
same,DPP9 activity [%],DPP9 [3]; c 625 nM,84.7331% and 76.9427% and 84.4618%
same,DPP9 activity [%],DPP9 [3]; c 1562.5 nM,49.8961% and 58.6041% and 49.6299%
same,DPP9 activity [%],DPP9 [3]; c 2500 nM,31.5472% and 27.5156% and 32.2809%
same,DPP9 activity [%],DPP9 [3]; c 3125 nM,24.6772% and 31.33% and 43.1829%
same,DPP9 activity [%],DPP9 [3]; c 5000 nM,13.8796% and 12.6206% and 14.7121%
same,DPP9 activity [%],DPP9 [3]; c 6250 nM,10.217% and 12.6398% and 8.944%
same,DPP9 activity [%],DPP9 [3]; c 10000 nM,3.977% and 3.748% and 3.468%
same,DPP9 activity [%],DPP9 [3]; c 25000 nM,1.6052% and 1.507% and 1.185%
same,DPP9 activity [%],DPP9 [3]; c 50000 nM,0.4873% and 0.1919% and 0.2191%
same,DPP9 activity [%],DPP9 [3]; c 100000 nM,-0.1705% and -0.1127% and 0.03998%
same,kapp,DPP9 [4]; DPP9,68.49 M⁻¹ s⁻¹
same,kinact best fit,DPP9 [4]; DPP9,0.0003473 s⁻¹
same,kobs,"DPP9 [4]; DPP9, c 312.5 nM",2.92e-05 s⁻¹
same,kobs,"DPP9 [4]; DPP9, c 625 nM",4.78e-05 s⁻¹
same,kobs,"DPP9 [4]; DPP9, c 2500 nM",0.000103 s⁻¹
same,KI (inactivation),"DPP9 [4]; DPP9, fit of kobs vs inhibitor concentration, read-out: KI best fit",5.07 µM
same,KI (inactivation),"DPP9 [4]; DPP9, read-out: KI best fit",5.07 µM
same,kinact DPP9,DPP9 [4]; [12],0.00035 ± 0.00007 s⁻¹
same,KI (inactivation),"DPP9 [4]; irreversible inhibition, fit of kobs vs inhibitor concentration, read-out: KI DPP9",5.07 µM
same,kapp DPP9,DPP9 [4]; ratio kinact/KI,68 M⁻¹ s⁻¹
same,kapp,DPP4 [5]; DPP4,481.66 M⁻¹ s⁻¹
same,kinact best fit,DPP4 [5]; DPP4,0.005372 s⁻¹
same,kobs,"DPP4 [5]; DPP4, c 6250 nM",0.002232 s⁻¹
same,kobs,"DPP4 [5]; DPP4, c 25000 nM",0.003486 s⁻¹
same,kobs,"DPP4 [5]; DPP4, c 50000 nM",0.004579 s⁻¹
same,KI (inactivation),"DPP4 [5]; DPP4, fit of kobs vs inhibitor concentration, read-out: KI best fit",11.2 µM
same,KI (inactivation),"DPP4 [5]; DPP4, read-out: KI best fit",11.2 µM
same,kinact DPP4,DPP4 [5]; [12],0.00537 ± 0.00033 s⁻¹
same,KI (inactivation),"DPP4 [5]; irreversible inhibition, fit of kobs vs inhibitor concentration, read-out: KI DPP4",11.2 µM
same,kapp DPP4,DPP4 [5]; ratio kinact/KI,482 M⁻¹ s⁻¹
same,Log2-fold change (9/DMSO),[6],0.1297
same,Log2-fold change (9/DMSO),[7],-0.9342
same,Log2-fold change (9/DMSO),[8],-1.528
same,Log2-fold change (9/DMSO),[9],-0.3682
same,Log2-fold change (9/DMSO),[10],-0.2878
same,kapp,DPP8 [11]; DPP8,170.93 M⁻¹ s⁻¹
same,kinact best fit,DPP8 [11]; DPP8,0.0005333 s⁻¹
same,kobs,"DPP8 [11]; DPP8, c 312.5 nM",5.77e-05 s⁻¹
same,kobs,"DPP8 [11]; DPP8, c 625 nM",8.71e-05 s⁻¹
same,kobs,"DPP8 [11]; DPP8, c 2500 nM",0.000239 s⁻¹
same,KI (inactivation),"DPP8 [11]; DPP8, fit of kobs vs inhibitor concentration, read-out: KI best fit",3.12 µM
same,KI (inactivation),"DPP8 [11]; DPP8, read-out: KI best fit",3.12 µM
same,kinact DPP8,DPP8 [11]; [12],0.00053 ± 0.00004 s⁻¹
same,KI (inactivation),"DPP8 [11]; irreversible inhibition, fit of kobs vs inhibitor concentration, read-out: KI DPP8",3.12 µM
same,kapp DPP8,DPP8 [11]; ratio kinact/KI,171 M⁻¹ s⁻¹
